Earlier results, collected in US8993551B2, “Composition for the regulation of the human immune system and the prevention and treatment of diseases thereof” (priority 2002, dated 2015).
Like-named read-outs stand apart in the source and are kept apart here.

Tests used:
[1] = system: CD4 lymphocyte count; settings: AIDS patients
[2] = of total dietary amount consumed / of intake, mammals
[3] = system: human breast cancer cells
[4] = system: HT-29 human colon cancer cells
[5] = system: LNCaP human prostate cancer cells

| SMILES | CD4 lymphocyte count [1] | intestinal absorption [2] | inhibition of breast cancer cell growth ([3]; after 3 days) [%] | inhibition of breast cancer cell growth ([3]; after 5 days) [%] | increase in rate of cell death ([3]; breast cancer cells) [%] | reduction in cell growth [4] [%] | inhibition of prostate cancer cell growth [5] [%] | increase in cell death ([5]; prostate cancer cells) [%] |
| --- | --- | --- | --- | --- | --- | --- | --- | --- |
| CC[C@H](CC[C@@H](C)[C@H]1CC[C@H]2[C@@H]3CC=C4C[C@@H](O)CC[C@]4(C)[C@H]3CC[C@]12C)C(C)C [beta-sitosterol] | maintain CD4 lymphocyte count | ~5% | 66 | 80 | 600 | 55 | 24 | 400 |
| CC(C)CCC[C@@H](C)[C@H]1CC[C@H]2[C@@H]3CC=C4C[C@@H](O)CC[C@]4(C)[C@H]3CC[C@]12C [cholesterol] | – | 45-54% | – | – | – | – | – | – |
